Measurements as given in US6590140B1, “Metal-regulated transporters and uses therefor” (Trustees of Dartmouth College, priority 1996, dated 2003).

Experiments:
[1] = test system: zrt1zrt2 double mutant strain ZHY3; assay: 65Zn uptake assay in zrt1zrt2 double mutant; format: cell-based, Saccharomyces cerevisiae; conditions: ZHY3 without ZIP gene, 5 minute time course using 10 mM Zn
Procedure: (§1) Zinc uptake assays were performed as described previously for iron uptake (Eide et al. (1992) J. Biol. Chem. 267:20774-20781) except that ^65ZnCl2 (Amersham) and LZM-EDTA were substituted for ^59FeCI3 and LIM-EDTA, respectively. Cells were incubated for 5 minutes in LZM-EDTA plus the indicated concentration of ^65Zn, collected on glass fiber filters (Schleicher and Schuell), washed with 10 ml ice-cold SSW (1 mM EDTA, 20 mM trisodium citrate, 1 mM KH2PO4, 1 mM CaCl2, 5 mM MgSO4, 1 mM NaCl pH 4.2), and cell-associated radioactivity was measured by liquid scintillation counting. […] Michaelis-Menten kinetic values were determined using […] software (Intellikinetics, Princeton, N.J.). […] The statistical significance of the differences of values relative to controls was determined with one-way analysis of variance (ANOVA) followed by a Dunnett multiple comparison test. β-galactosidase activity was assayed in cells harvested at an OD600 of 0.5-2.0 as described by Guarente (Guarente, L. (1983) Methods Enzymol. 101:181-191) and activity is expressed as the change in absorbance at 420 nm×1000 divided by (min×ml of culture used×OD600 of the culture). Cell-associated zinc was measured in parallel cultures supplemented with tracer amounts of ^65Zn (10 μM) and nonradioactive zinc to the indicated final concentration. […]

[2] = molecular target: T1, ZIP2 (Arabidopsis thaliana, UniProt Q9LTH9); assay: Zn uptake by ZHY3 containing ZIP2; format: cell-based; conditions: ZHY3 cells containing ZIP2, 5 minute time course using 10 mM Zn
T1 construct: expressed in transfected cells; host or cells: S. cerevisiae ZHY3 (zrt1::LEU2 zrt2::HIS3) with an Arabidopsis cDNA clone in pFL61
T1 sequence (Q9LTH9 30-353): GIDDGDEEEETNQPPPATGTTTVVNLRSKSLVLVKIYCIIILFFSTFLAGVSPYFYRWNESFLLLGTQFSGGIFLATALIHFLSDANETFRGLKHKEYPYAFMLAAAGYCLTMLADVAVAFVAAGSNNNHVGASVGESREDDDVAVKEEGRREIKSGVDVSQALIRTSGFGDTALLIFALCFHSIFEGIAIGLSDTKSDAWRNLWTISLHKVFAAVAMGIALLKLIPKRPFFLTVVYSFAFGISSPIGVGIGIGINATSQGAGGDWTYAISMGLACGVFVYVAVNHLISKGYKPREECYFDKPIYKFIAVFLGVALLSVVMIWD
Procedure: as §1

[Zn+2] [zinc]
zinc uptake [1]: essentially no detectable zinc uptake | Zn uptake [2]: no Zn uptake
